Literature values, collected in patent US10485789B2, “Compositions and methods for targeting receptors expressed in the gut” (Sensor Pharmaceuticals, Inc., priority 2014, dated 2019).

Test system: DSS injury model
Settings: mice pretreated with antibiotics

## O=C(O)c1cccnc1 [niacin]
  effect in the DSS injury model: dramatic effect
